According to US20050239656A1, “Pyridine compounds or salts thereof and herbicides containing the same” (priority 2002, published 2005):

Each compound was assayed on barnyardgrass (assay: Test Example 1: foliage treatment, upland pot test). Conditions: active ingredient 500 g/ha, observed 18th to 23rd day, 0 = non-treated, 100 = complete kill.
Type: in vivo, Echinochloa crus-galli L.
In short: (§1)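 Each plant species was sprayed once on its foliage, with wheat at 1.3–2.4, soybean at 0.1–0.4, barnyardgrass at 1.3–2.8 and rice at 1.2–2.6 leaves. Visual ratings of growth inhibition, 0 to 100%, followed 18–23 days later.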

Compound | Growth controlling degree (%) Barnyardgrass
CC(C)CC(=O)N(C)C(c1cnccc1C(F)(F)F)C(C)C (centres unmarked) [I-193] | 95%

Each compound was assayed on green foxtail (assay: Test Example 1: foliage treatment, upland pot test). Conditions: active ingredient 500 g/ha, observed 18th to 23rd day, 0 = non-treated, 100 = complete kill.
Type: in vivo, Setaria viridis L.

Compound | Growth controlling degree (%) Green foxtail
CC(C)CC(=O)N(C)C(c1cnccc1C(F)(F)F)C(C)C (centres unmarked) [I-193] | 80%

The compounds below were run on japanese bulrush (assay: Test Example 3: paddy pot test, application under submerged conditions). Conditions: active ingredient 250 g/ha; submerged application at 0.5 leaf stage; visually observed 14 days after application; 0 = non-treated, 100 = complete kill.
Type: in vivo, Scirpus juncoides
In short: (§2)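 Seeds were sown in flooded paddy soil (0.5–1 cm water), wapato tubers were planted 1–2 days later, and water was then held at 3–4 cm. Diluted wettable powder or emulsifiable concentrate was pipetted into the water at the 0.5 leaf or primary leaf stage. Growth control was visually scored at 14 days (0–100%).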

Compound | Growth controlling degree (%) Japanese bulrush
CC(C)CC(=O)N(C)C(c1cnccc1C(F)(F)F)C(C)C (centres unmarked) [I-193] | 95%

The compounds below were run on crabgrass (assay: Test Example 1: foliage treatment, upland pot test). Conditions: active ingredient 500 g/ha, observed 18th to 23rd day, 0 = non-treated, 100 = complete kill.
Type: in vivo, Digitaria sanguinalis L.

Compound | Growth controlling degree (%) Crabgrass
CC(C)CC(=O)N(C)C(c1cnccc1C(F)(F)F)C(C)C (centres unmarked) [I-193] | 90%

Each compound was assayed on barnyardgrass (assay: Test Example 2: soil surface treatment, upland pot test). Conditions: active ingredient 250 g/ha, observed 20th to 28th day.
Type: in vivo, Echinochloa crus-galli L.
In short: (§3)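 Upland soil in pots of 1/170,000 ha is sown; on day 1 after sowing the formulated compound (wettable powder or emulsifiable concentrate, predetermined a.i. amount, water volume 1,500 L/ha) is applied to the soil surface with a small sprayer. Percent control is judged by eye 20–28 days later.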

Compound | Growth controlling degree (%) Barnyardgrass
CC(C)CC(=O)N(C)C(c1cnccc1C(F)(F)F)C(C)C (centres unmarked) [I-193] | 100%

The compounds below were run on wheat (assay: Test Example 1: foliage treatment, upland pot test). Conditions: crop, active ingredient 500 g/ha, observed 18th to 23rd day, 0 = non-treated, 100 = complete kill.
Type: in vivo, Triticum spp.
Description: Upland field soil was put into a 1/170,000 ha pot, and seed of various plants were sown. Then, when the plants reached predetermined leaf stages ((1) barnyardgrass: 1.3 to 2.8 leaf stages, (2) crabgrass: 1.0 to 2.8 leaf stages, (3) green foxtail: 1.3 to 2.6 leaf stages, (4) redroot pigweed: 0.1 to 1.2 leaf stages, (5) prickly sida: 0.1 to 1.2 leaf stages, (6) velvetleaf: 0.1 to 1.2 leaf stages, (7) tall morningglory: 0.1 to 1.5 leaf stages, (8) rice: 1.2 to 2.6 leaf stages, (9) wheat: 1.3 to 2.4 leaf stages, (10) corn, 2.1 to 3.2 leaf stages, (11) soybean: 0.1 to 0.4 leaf stage), a wettable powder or emulsifiable concentrate having the compound of the present invention formulated in accordance with a usual formulation method, was weighed so that the active ingredient would be a predetermined amount, and diluted with water in an amount of 500 L/ha. To the diluted solution, 0.1% (v/v) of agricultural spreader was added. The herbicide thus adjusted was applied by a small size sprayer for foliage treatment. On the 18th to 23rd days after the application of the herbicide, the growth of the respective plants was visually observed, and the herbicidal effects were evaluated by the growth controlling degrees (%) ranging from 0 (equivalent to the non-treated plot) to 100 (complete kill), whereby the results shown in Table 3, were obtained.

Compound | Growth controlling degree (%) wheat
CC(C)CC(=O)N(C)C(c1cnccc1C(F)(F)F)C(C)C (centres unmarked) [I-193] | 80%

Each compound was assayed on prickly sida (assay: Test Example 1: foliage treatment, upland pot test). Conditions: active ingredient 500 g/ha, observed 18th to 23rd day, 0 = non-treated, 100 = complete kill.
Type: in vivo, Sida spinosa L.

Compound | Growth controlling degree (%) Prickly sida
CC(C)CC(=O)N(C)C(c1cnccc1C(F)(F)F)C(C)C (centres unmarked) [I-193] | 90%

What follows are compounds tested on corn (assay: Test Example 1: foliage treatment, upland pot test). Conditions: crop, active ingredient 500 g/ha, observed 18th to 23rd day, 0 = non-treated, 100 = complete kill.
Type: in vivo, Zea mays L.
In short: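 Corn seeds were sown in upland field soil held in a 1/170,000 ha pot and grown to the 2.1 to 3.2 leaf stage. A wettable powder or emulsifiable concentrate of the test compound was diluted with water at 500 L/ha, given 0.1% (v/v) agricultural spreader, and sprayed onto the foliage with a small sprayer. Growth controlling degree (%) was scored visually 18th to 23rd days later, from 0 (non-treated) to 100 (complete kill).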

Compound | Growth controlling degree (%) Corn
CC(C)CC(=O)N(C)C(c1cnccc1C(F)(F)F)C(C)C (centres unmarked) [I-193] | 80%

Each compound was assayed on soybean (assay: Test Example 2: soil surface treatment, upland pot test). Conditions: active ingredient 250 g/ha, observed 20th to 28th day.
Type: in vivo, Glycine max Merr.
In short: as §3

Compound | Growth controlling degree (%) Soyabean
CC(C)CC(=O)N(C)C(c1cnccc1C(F)(F)F)C(C)C (centres unmarked) [I-193] | 10%

These compounds were tested on rice (var. Nihonbare) (assay: Test Example 3: paddy pot test, transplanted rice). Conditions: active ingredient 250 g/ha, applied 4th day after transplantation, visually observed 21st day after application, 0 = non-treated, 100 = complete kill.
Type: in vivo, Oryza sativa L.
In short: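 Rice (2-leaf stage) was transplanted 3 cm deep into puddled, leveled paddy soil under 3–4 cm flooding. On day 4 after transplanting, diluted wettable powder or emulsifiable concentrate was pipetted onto the water at a predetermined active-ingredient dose. Growth control (0 = untreated, 100 = complete kill) was scored visually 21 days later.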

Compound | Growth controlling degree (%) Rice
CC(C)CC(=O)N(C)C(c1cnccc1C(F)(F)F)C(C)C (centres unmarked) [I-193] | 30%

What follows are compounds tested on rice (assay: Test Example 2: soil surface treatment, upland pot test). Conditions: active ingredient 250 g/ha, observed 20th to 28th day.
Type: in vivo, Oryza sativa L.
In short: as §3

Compound | Growth controlling degree (%) Rice
CC(C)CC(=O)N(C)C(c1cnccc1C(F)(F)F)C(C)C (centres unmarked) [I-193] | 80%

What follows are compounds tested on soybean (assay: Test Example 1: foliage treatment, upland pot test). Conditions: crop, active ingredient 500 g/ha, observed 18th to 23rd day, 0 = non-treated, 100 = complete kill.
Type: in vivo, Glycine max Merr.
In short: as §1

Compound | Growth controlling degree (%) Soybean
CC(C)CC(=O)N(C)C(c1cnccc1C(F)(F)F)C(C)C (centres unmarked) [I-193] | 80%

Each compound was assayed on crabgrass (assay: Test Example 2: soil surface treatment, upland pot test). Conditions: active ingredient 250 g/ha, observed 20th to 28th day.
Type: in vivo, Digitaria sanguinalis L.
In short: as §3

Compound | Growth controlling degree (%) Crabgrass
CC(C)CC(=O)N(C)C(c1cnccc1C(F)(F)F)C(C)C (centres unmarked) [I-193] | 100%

What follows are compounds tested on redroot pigweed in the same assay as above. Conditions: active ingredient 250 g/ha, observed 20th to 28th day.
Type: in vivo, Amaranthus retroflexus L.
In short: as §3

Compound | Growth controlling degree (%) Redroot pigweed
CC(C)CC(=O)N(C)C(c1cnccc1C(F)(F)F)C(C)C (centres unmarked) [I-193] | 10%

These compounds were tested on prickly sida in the same assay as above. Conditions: active ingredient 250 g/ha, observed 20th to 28th day.
Type: in vivo, Sida spinosa L.
In short: as §3

Compound | Growth controlling degree (%) Prickly sida
CC(C)CC(=O)N(C)C(c1cnccc1C(F)(F)F)C(C)C (centres unmarked) [I-193] | 80%

What follows are compounds tested on redroot pigweed (assay: Test Example 1: foliage treatment, upland pot test). Conditions: active ingredient 500 g/ha, observed 18th to 23rd day, 0 = non-treated, 100 = complete kill.
Type: in vivo, Amaranthus retroflexus L.

Compound | Growth controlling degree (%) Redroot pigweed
CC(C)CC(=O)N(C)C(c1cnccc1C(F)(F)F)C(C)C (centres unmarked) [I-193] | 80%

Each compound was assayed on green foxtail (assay: Test Example 2: soil surface treatment, upland pot test). Conditions: active ingredient 250 g/ha, observed 20th to 28th day.
Type: in vivo, Setaria viridis L.
In short: as §3

Compound | Growth controlling degree (%) Green foxtail
CC(C)CC(=O)N(C)C(c1cnccc1C(F)(F)F)C(C)C (centres unmarked) [I-193] | 100%

Each compound was assayed on corn in the same assay as above. Conditions: active ingredient 250 g/ha, observed 20th to 28th day.
Type: in vivo, Zea mays L.
In short: as §3

Compound | Growth controlling degree (%) Corn
CC(C)CC(=O)N(C)C(c1cnccc1C(F)(F)F)C(C)C (centres unmarked) [I-193] | 70%

These compounds were tested on velvetleaf in the same assay as above. Conditions: active ingredient 250 g/ha, observed 20th to 28th day.
Type: in vivo, Abutilon theophrasti MEDIC.
In short: as §3

Compound | Growth controlling degree (%) Velvetleaf
CC(C)CC(=O)N(C)C(c1cnccc1C(F)(F)F)C(C)C (centres unmarked) [I-193] | 10%

These compounds were tested on velvetleaf (assay: Test Example 1: foliage treatment, upland pot test). Conditions: active ingredient 500 g/ha, observed 18th to 23rd day, 0 = non-treated, 100 = complete kill.
Type: in vivo, Abutilon theophrasti MEDIC.

Compound | Growth controlling degree (%) Velvetleaf
CC(C)CC(=O)N(C)C(c1cnccc1C(F)(F)F)C(C)C (centres unmarked) [I-193] | 60%

What follows are compounds tested on barnyardgrass (assay: Test Example 3: paddy pot test, application under submerged conditions). Conditions: active ingredient 250 g/ha; submerged application at 0.5 leaf stage; visually observed 14 days after application; 0 = non-treated, 100 = complete kill.
Type: in vivo, Echinochloa crus-galli L.
In short: as §2

Compound | Growth controlling degree (%) Barnyardgrass
CC(C)CC(=O)N(C)C(c1cnccc1C(F)(F)F)C(C)C (centres unmarked) [I-193] | 100%

These compounds were tested on wheat (assay: Test Example 2: soil surface treatment, upland pot test). Conditions: active ingredient 250 g/ha, observed 20th to 28th day.
Type: in vivo, Triticum spp.
In short: as §3

Compound | Growth controlling degree (%) wheat
CC(C)CC(=O)N(C)C(c1cnccc1C(F)(F)F)C(C)C (centres unmarked) [I-193] | 60%

What follows are compounds tested on rice (assay: Test Example 1: foliage treatment, upland pot test). Conditions: crop, active ingredient 500 g/ha, observed 18th to 23rd day, 0 = non-treated, 100 = complete kill.
Type: in vivo, Oryza sativa L.
In short: as §1

Compound | Growth controlling degree (%) Rice
CC(C)CC(=O)N(C)C(c1cnccc1C(F)(F)F)C(C)C (centres unmarked) [I-193] | 80%
